Data from US9358262B2, “Use of antioxidant-enriched fermented blueberry extracts in the treatment of diabetes” (priority 2003, dated 2016).
Entries after “also recorded” stand apart in the source; their conditions may differ.

Experiments:
[1] = test system: LPS/IFN-γ-activated RAW 264.7 gamma NO(−) macrophages; assay: Inhibition of nitric oxide production (nitrite, Griess reaction) in activated macrophages; assay type: cell-based, mouse; conditions: for Nitrite: 24 h after LPS/IFN-γ; for inhibition at 63 µM: RAW264.7, 63 μM (μM GAE for juices); for inhibition at 125 µM: RAW264.7, 125 μM (μM GAE for juices); for inhibition at 250 µM: RAW264.7, 250 μM (μM GAE for juices); for inhibition at 500 µM: RAW264.7, 500 μM (μM GAE for juices); for Effect on NO production, in words: over the tested concentrations
Method: Cell culture. The mouse monocyte/macrophage cell line RAW 264.7 gamma NO(−) [American Type Culture Collection (ATCC)] was cultured in RPMI-1640 supplemented with 10% (v/v) heat-inactivated FBS, streptomycin ([…]) and penicillin (100 units/ml). All cultures were incubated at 37° C. in a humidified atmosphere with 5% CO2. Cell number was assessed by trypan blue dye exclusion on a Neubauer hemacytometer. Cells were grown to 90% confluence in sterile cell culture flasks and gently detached using a scraper (Fisher Scientific). For phenolic compound treatment tests, cells were cultured in triplicate in Costar flat-bottom cell culture plates (Corning Inc.). Cells were plated at a density of 6×10^5 cells/well in 24-well cell culture plates and grown for 1 h to allow them to attach to the plate. Compounds to be tested were initially dissolved in 10 μl of DMSO, and then RPMI was added to make solutions in a series of concentrations with a dilution factor of 2. The final concentrations of test compound that cells received were 16, 31, 63, 125, 250, and 500 μM, respectively. For berry juices, the final concentrations were 16, 31, 63, 125, 250 and 500 μM GAE, respectively. Cells were supplemented with the test compounds for 1 h before stimulation with 10 ng/ml lipopolysaccharide (LPS) and 10-50 units/ml interferon gamma (IFN-γ). The activated cells were incubated for 24 h and then supernatants were collected to determine nitrite concentration and/or stored at −80° C. for further use. Control cells were grown under identical conditions but were not exposed to the test compounds or LPS/IFN-γ.
Nitric Oxide (NO) Determination. Nitrite concentration was used as an indication of NO production. The procedure for NO determination was based on the Griess reaction. The assay was assessed as in the methods of Wang and Mazza (2002a, 2002b) for cell supernatants supplemented with phenolic compounds or berry juices. In brief, 100 μL of cell culture supernatant or sodium nitrite standard was mixed with an equal volume of Griess reagent [a mixture of 0.1% (w/v) N-(1-naphthyl)-ethylenediamine dihydrochloride and 1% (w/v) sulfanilamide in 5% (v/v) phosphoric acid, the two parts being mixed together within 1 h of use] using a 96-well plate. A set of parallel analyses was also conducted by applying only 100 μL of 2.5% (v/v) phosphoric acid instead of Griess reagent to each of 100 μL of cell supernatants or the mixture of standard sodium nitrite and cyanidin chloride. After 20 min at room temperature, the absorbance at 540 nm was measured using the microtitration reader. The net absorbance of the product of the Griess reaction was obtained by subtracting that of anthocyanins from the total. The absorbance was referred to a nitrite standard curve to determine the nitrite concentration in the supernatants.
Inhibition of Nitric Oxide Production. RAW 264.7 gamma NO(−) cell line was derived from the RAW 264.7 mouse monocyte/macrophage cell line. […] When LPS/IFN-γ was administered to RAW 264.7 gamma (NO−) macrophages, NO production, measured as nitrite, increased dramatically from the basal level of 0 to ≧30 μM after 24 h. To determine the effects of cranberry and blueberry juice and other phenolic compounds on NO production, different concentrations of these compounds (500, 250, 125, 63, and 16 μM) were incubated with the LPS/IFN-γ-activated macrophages (Table 7). Cell viability was assayed to exclude the possibility that the inhibitory effects of phenolic compounds were due to their cytotoxicity. The MTT assay was used for the colorless phenolic compound-treated macrophages, whereas the resazurin assay was used for cranberry and blueberry juice-treated macrophages. […]

[2] = reference phenolic compounds, Fukumoto and Mazza (2000); cited from earlier work
[3] = Mus musculus, read-out: Inhibitory effect (decrease of NO production)

For O=C(/C=C/c1ccc(O)c(O)c1)O[C@@H]1C[C@](O)(C(=O)O)C[C@@H](O)[C@H]1O [Chlorogenic acid], the Nitrite ([1]; 16 μM (μM GAE for juices)) was 37.1 (0.4) μM, the Nitrite ([1]; 31 μM (μM GAE for juices)) was 39 (1) μM and the Nitrite ([1]; 63 μM (μM GAE for juices)) was 40.4 (1.64) μM. For the same compound, the Nitrite ([1]; 125 μM (μM GAE for juices)) was 41.7 (1.7) μM, the Nitrite ([1]; 250 μM (μM GAE for juices)) was 47.6 (1.4) μM and the Nitrite ([1]; 500 μM (μM GAE for juices)) was 46.6 (1.5) μM. For the same compound, the inhibition at 16 µM ([1]; Mus musculus, RAW264.7, 16 μM (μM GAE for juices), read-out: Inhibitory effect (decrease of NO production)) was -9.6%, the inhibition at 31 µM ([1]; Mus musculus, RAW264.7, 31 μM (μM GAE for juices), read-out: Inhibitory effect (decrease of NO production)) was -15.2% and the inhibition at 63 µM [1, 3] was -19.5%. It also gave an inhibition at 125 µM [1, 3] of -23.4%, an inhibition at 250 µM [1, 3] of -40.8% and an inhibition at 500 µM [1, 3] of -37.9%. For the same compound, the “Effect on NO production, in words” value [1] was “showed no inhibitory effects; also recorded: induced production of NO”.
In the case of O=C(O)c1cc(O)c(O)c(O)c1 [Gallic acid], the Nitrite ([1]; 16 μM (μM GAE for juices)) is reported as 36.2 (3.7) μM, the Nitrite ([1]; 31 μM (μM GAE for juices)) is reported as 35.4 (2.9) μM and the Nitrite ([1]; 63 μM (μM GAE for juices)) is reported as 29.3 (0.3) μM. For the same compound, the Nitrite ([1]; 125 μM (μM GAE for juices)) was 31.1 (5.9) μM, the Nitrite ([1]; 250 μM (μM GAE for juices)) was 25.2 (1.5) μM and the Nitrite ([1]; 500 μM (μM GAE for juices)) was 22.6 (0.6) μM. For the same compound, the “Inhibitory effect (decrease of NO production)” value ([1]; 500 μM (μM GAE for juices), 500 µM) was 30.9 (1.9) %, the inhibition at 63 µM [1, 3] was 10.5% and the inhibition at 125 µM [1, 3] was 19%. The inhibition at 250 µM [1, 3] was 23%, the inhibition at 500 µM [1, 3] was 30% and the “Effect on NO production, in words” value [1] was “dose-dependent”. For the same compound, the Antiradical activity [2] was −6.21 (0.60) and the Antiradical power [2] was 12.50.
